The values that follow come from the METLIN SMRT retention time set (Domingo-Almenara et al. 2019).

A short description of this series: gradient 5% acetonitrile 3 min, to 50% in 2 min, to 85% in 15 min, held 3 min, 100 µL/min. The note with it: column: Zorbax Extend-C18 2.1 x 50 mm; eluents: water / acetonitrile, 0.1% formic acid. In short, it runs like this:
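In both positive and negative ionization mode, a quadrupole time-of-flight mass spectrometer coupled to HPLC analyzed pure standards run in mixtures of ~100 molecules. The Zorbax Extend-C18 column (2.1 × 50 mm, 1.8 μm) was operated at 100 μL/min with water and acetonitrile, each containing 0.1% formic acid. The dead volume was 40 μL and the dwell volume 900 μL. Retention time came from adduct peaks that were computationally picked and individually inspected by hand.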
`Cc1nc(-c2ccncc2)cc2nn(CC(=O)NCc3ccccc3)c(=O)n12` displayed an RP-LC retention time of 697 s.
On to `Cc1nc(N2CCOCC2)c2c(C(=O)NCc3ccc(Cl)cc3)c(C)oc2n1`, for which the RP-LC retention time worked out at 797 s.
In the case of `Cc1nn(C(C)C(=O)NCCCN2CCc3ccccc3C2)c(=O)c2nn(-c3ccccc3)c(C)c12` (stereo not given) it was 667 s.
The figure for `COc1ccccc1CNC(=O)C1CCCN(C(=O)C2Sc3ccccc3NC2=O)C1` (stereo not given) is 736 s; for `O=C(Nc1nnc(C2CC(=O)N(c3ccc(F)cc3)C2)o1)c1ccc(Cl)cc1` (stereo not given) it is 771 s.
Regarding `Cc1ccc(S(=O)(=O)N2CCC(C(=O)NCCc3csc(-c4cccs4)n3)CC2)cc1`, the RP-LC retention time worked out at 913 s.
Compound `CC(C)c1ccc(CNC(=O)c2nnc(-c3ccc(S(=O)(=O)N(C)C)cc3)o2)cc1` had an RP-LC retention time of 1010 s.
`Cc1cccc(NC(=O)N2CCCC2C(=O)NC(C)C)c1` (stereo not given) came in with an RP-LC retention time of 690 s.
On to `Cc1cc(N2CCCC2)n2nc(CN3CCN(c4ccccc4F)CC3)nc2n1`, for which the RP-LC retention time came to 622 s.
In turn, `O=C(c1nnc(-c2ccc(S(=O)(=O)N3CCCCC3)cc2)o1)N1CCN(c2ccccc2)CC1` displayed an RP-LC retention time of 1080 s.
`O=c1c2cc(-c3ccc(F)cc3)nn2ccn1Cc1noc(CN2CCCC2)n1` showed an RP-LC retention time of 638 s.
With `CCOC(=O)c1nc(Nc2cccc(C)c2)c2ccccc2n1`, the RP-LC retention time was found to be 890 s.
`CCn1cnnc1C1CCCCN1S(=O)(=O)c1ccccc1F` (stereo not given): the RP-LC retention time was 706 s.
Compound `CCc1nc(-c2c(C)cc(C)nc2NC(=O)c2cc(C)cc(C)c2)no1` yielded an RP-LC retention time of 605 s.
The compound `Cc1nn(-c2ccccc2)c2nc(C3CC3)cc(C(=O)NCc3ccco3)c12` gave an RP-LC retention time of 1100 s.
`CCCc1c(C(=O)O)nnn1-c1cccc(Cl)c1` registered an RP-LC retention time of 783 s.
The figure for `Cc1cc(C)n(-c2cc(Nc3ccccc3)ncn2)n1` is 1010 s; for `CN(C(=O)c1ccc(-c2cccc([N+](=O)[O-])c2)o1)C1CCS(=O)(=O)C1` (stereo not given) it is 726 s.
The figure for `O=C(Nc1ccc2c(c1)OCCO2)N1CCC2(CC1)Nc1ccccc1-n1cccc12` is 934 s; for `Cc1ccccc1-n1c(SCc2nc(-c3ccccc3)no2)nc2cc3c(cc2c1=O)OCO3` it is 1190 s.
In the case of `O=C(CSCc1ccccc1)Nc1ccc(CC(=O)NC2CC2)cc1` it was 705 s; in that of `CCCc1cc(NCCN(C)C)n2ncc(-c3ccccc3)c2n1`, 660 s.
Compound `COc1ccc(Cl)cc1NC(=O)N1CCCC(C)(C(=O)NCc2ccccc2)C1` (stereo not given) returned an RP-LC retention time of 998 s.
Compound `Cc1ccc(-n2cc(C(=O)OCC(=O)OC(C)(C)C)c3ccccc3c2=O)cc1` showed an RP-LC retention time of 1210 s.
Consider `O=C(Cc1cccc(F)c1)Nc1nnc(SCc2nnc(-c3ccccc3)o2)s1`, for which the RP-LC retention time worked out at 873 s.
The figure for `Cc1nnc(NC(=O)CN2CCC(c3nnc(C(F)(F)F)o3)CC2)s1` is 545 s.
`COc1ccc(C(C)NC(=O)C2CCCN(c3cnc4nccnc4c3)C2)cc1OC` (stereo not given) came in with an RP-LC retention time of 663 s.
`COc1ccc(N2CCN(C(=O)CN3CCN(Cc4cccc(Cl)c4)C3=O)CC2)cc1` registered an RP-LC retention time of 784 s.
For the compound `CC(C)(C)C(=O)Nc1nc2cc3c(cc2s1)OCO3`, the RP-LC retention time is 823 s.
On to `CC1CCCCN1c1nc(-c2ccc(C(C)(C)C)cc2)nc2ccccc12` (stereo not given), for which the RP-LC retention time stood at 1050 s.
Regarding `COc1ccc(-c2cn3c(n2)N(C(=O)Cn2ccnc2)CCC3)cc1`, the RP-LC retention time was 593 s.
The figure for `COCCc1noc(-c2ccccc2OC2CNC2)n1` is 590 s.
`CC(=O)Nc1nsc(N2CCC(C(=O)NCc3ccc(F)cc3F)CC2)n1`: the RP-LC retention time was 798 s.
`CCc1nc2ccccc2c(=O)n1Cc1noc(-c2ccccc2OC)n1` came in with an RP-LC retention time of 919 s.
As for `COCCNC(=O)N1c2ccccc2CC1c1nc(C(C)C)no1` (stereo not given), the RP-LC retention time was 836 s.
With `CCN(CC)S(=O)(=O)c1ccc2c(c1)CC(C(=O)NCCN1CCCC1)N2C(C)=O` (stereo not given), the RP-LC retention time was determined as 613 s.
In turn, `CCn1c(=O)c(C)nc2cc(-c3noc(-c4ccc(N(C)C)cc4)n3)ccc21` showed an RP-LC retention time of 1140 s.
With `Cc1c(Cl)cccc1-c1ccc(CNCC2CCCO2)o1` (stereo not given), the RP-LC retention time was 734 s.
The figure for `Fc1ccccc1-c1noc(-c2nc(-c3ccncc3)no2)n1` is 951 s; for `O=C(CN1CCC(c2nc(-c3ccc(F)cc3)no2)CC1)N1CCN(c2ccccc2)CC1` it is 618 s.
Consider `CCCCN(C)Cc1nc2nc(C)cc(N3CCOCC3)n2n1`, for which the RP-LC retention time amounted to 582 s.
`CCN1C(=O)COc2ccc(-c3noc(CNS(=O)(=O)c4ccccc4)n3)cc21` had an RP-LC retention time of 842 s.
In turn, `CC1(C(=O)NCc2ccc(Cl)cc2)CN(S(C)(=O)=O)CC(=O)N1CCCc1ccccc1` (stereo not given) yielded an RP-LC retention time of 953 s.
In the case of `CCOc1ccc(-c2noc(Cn3cnc4c(cnn4-c4ccc(CC)cc4)c3=O)n2)cc1OC` it was 1070 s; in that of `N#CC1=CN(c2ccc(F)c(F)c2)c2ccc(F)cc2S1(=O)=O`, 934 s.
As for `COc1ccc(Cn2nc3ccc(S(=O)(=O)N4CCCCC4)cn3c2=O)cc1`, the RP-LC retention time amounted to 900 s.
In turn, `CCc1nc(N)n(CC(=O)Nc2ccc(C)cc2C)c(=O)c1C` registered an RP-LC retention time of 659 s.
The compound `COc1ccc(C)cc1NC(=O)C1CCN(S(C)(=O)=O)c2ccccc2O1` (stereo not given) returned an RP-LC retention time of 994 s.
In the case of `O=C(Nc1ccc2c(c1)CN(C(=O)c1ccccc1)CC2)c1ccc(Br)o1` it was 819 s; in that of `Cc1noc(-c2cccn2Cc2cccc(F)c2)n1`, 962 s; in that of `Cc1csc(-c2ccc(N3CCN(C(=O)c4ccco4)CC3)nc2)n1`, 711 s.
Turning to `Cc1ccc2c(c1)C(C)(C)C(=O)N2CC(=O)N1CCN(c2ncccn2)CC1`, the RP-LC retention time turned out to be 773 s.
In turn, `Cn1c(=O)c(N2CCN(C(=O)c3cc(F)ccc3Cl)CC2)nc2ccncc21` yielded an RP-LC retention time of 570 s.
`C[C@@H]1CN(C(=O)c2ccsc2)C[C@H]1c1nc(-c2ccccc2)no1` showed an RP-LC retention time of 935 s.
`COc1ccccc1NC(=O)NCCc1nc2cccnc2n1C1CCCC1` registered an RP-LC retention time of 728 s.
`O=C(Nc1cnc(N2CCOCC2)nc1)c1cccc(Cl)c1`: the RP-LC retention time stood at 793 s.
The figure for `CCOC(=O)C1CCCN(S(=O)(=O)c2cc(C(=O)N3CCCCC3)n(C)c2C)C1` (stereo not given) is 858 s; for `Cn1c(=O)c2cc(C(=O)NCCCc3ccccc3)sc2n(C)c1=O` it is 765 s.
On to `Cc1cc(C(=O)NCCCC(=O)Nc2cccc3cccnc23)c(C)o1`, for which the RP-LC retention time came out at 728 s.
In the case of `CCn1cnc2cc(CNC(=O)c3ccc(C(F)(F)F)cc3)ccc21` it was 651 s.
The figure for `Cc1nnc2c(=O)n(CC(=O)N3CCN(C4CCCCC4)CC3)c3cccnc3n12` is 587 s.
In the case of `Cc1nccn1Cc1noc(-c2cccc(F)c2)n1`, the RP-LC retention time is 611 s.
In the case of `CCc1cccc(NS(=O)(=O)c2cc3n(c2)CCN(C)C3=O)c1` it was 722 s; in that of `CCc1ccc(Oc2cc(N3CCC(C(=O)NCCC(C)C)CC3)ncn2)cc1`, 1040 s; in that of `Cc1cccc(NC(=O)C2CCN(S(C)(=O)=O)c3ccccc3O2)c1` (stereo not given), 895 s.
In the case of `COc1ccc2nc(NC(=O)C3CCN(C(=O)c4ccc(-c5noc(C)n5)cc4)CC3)sc2c1`, the RP-LC retention time came to 803 s.
The compound `CCN1CCN(C(=O)CN2c3ccc(C(C)C)cc3-c3ccccc3S2(=O)=O)CC1` showed an RP-LC retention time of 712 s.
As to `COc1cccc(NC(=O)Cn2ncc3c(c2=O)N(CC2CC2)C(=O)CS3)c1`, the RP-LC retention time was 775 s.
For `COc1ccc2c(c1)C1(CCN(C(=O)CC(C)(C)C)C1)C(=O)N2` (stereo not given), the RP-LC retention time is 725 s.
The compound `O=C([C@@H]1C[C@H](F)CN1C(=O)c1ccoc1)N1CCCCC1` showed an RP-LC retention time of 576 s.
Consider `O=C(CN1CCN(C(=O)c2cnn3c(-c4ccc5c(c4)OCO5)ccnc23)CC1)N1CCCCC1`, for which the RP-LC retention time turned out to be 611 s.
Turning to `CN(C)C(=O)c1cn(C2CN(S(=O)(=O)c3ccc4c(c3)CCC4)C2)nn1`, the RP-LC retention time is 774 s.
The figure for `COc1ccc(OC)c(NC(=O)C2c3ccccc3C(=O)N3CCc4ccccc4C23)c1` (stereo not given) is 903 s; for `CCCNC(=O)N1CCC(c2noc(-c3ccccc3)n2)C1` (stereo not given) it is 763 s; for `O=C(NC1CCCCC1)N1CCC(OC2CCN(Cc3ccccc3)CC2)CC1` it is 663 s.
As for `CCc1noc(NC(C)=O)c1-c1ccc(OC)c(S(=O)(=O)Nc2cc(Cl)ccc2C)c1`, the RP-LC retention time came to 870 s.
As to `CCC(CC)C(=O)Nc1c(-c2ccc(OC)cc2)nc2cc(C)ccn12`, the RP-LC retention time stood at 672 s.
Consider `Nc1cc(C2CCN(S(=O)(=O)c3ccccc3)CC2)no1`, for which the RP-LC retention time is 732 s.
On to `Cc1ccc(-n2cc(C(=O)NCc3ccco3)nn2)cc1C`, for which the RP-LC retention time was 854 s.
Regarding `Cc1ccc(Nc2c(-c3ccc(N4CCOCC4)cc3)nc3ncccn23)cc1Cl`, the RP-LC retention time was 751 s.
